Data published in PubChem BioAssay (NCI).
Where “and” joins values, the source holds several entries; their conditions need not be identical. Identical values can stand only once.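 Briefly, cells in 96-well plates were exposed to five compound concentrations for 48 h, and endpoints were estimated by linear interpolation. GI50: concentration for 50% inhibition of growth. TGI denotes the concentration required for complete inhibition of growth.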

Legend:
Experiment in all cases: NCI anticancer screen, dose series, 48 h
KM12 colon = tested on: KM12 colon
DU-145 prostate = tested on: DU-145 prostate
T-47D breast = tested on: T-47D breast
BT-549 breast = tested on: BT-549 breast
SF-268 CNS = tested on: SF-268 CNS
NCI-H23 lung = tested on: NCI-H23 lung
SNB-75 CNS = tested on: SNB-75 CNS
SK-MEL-28 melanoma = tested on: SK-MEL-28 melanoma
LOX IMVI melanoma = tested on: LOX IMVI melanoma
MALME-3M melanoma = tested on: MALME-3M melanoma

In the case of `CSc1ccc(-c2cn3ccsc3n2)cc1`, the GI50 (KM12 colon) is reported as 24.4 µM, the TGI (KM12 colon) is reported as greater than 100 µM and the GI50 (DU-145 prostate) is reported as 9.07 µM. The TGI (DU-145 prostate) was greater than 100 µM, the GI50 (T-47D breast) was 8.53 µM and the TGI (T-47D breast) was greater than 100 µM. For the same compound, the GI50 (BT-549 breast) was greater than 60.5 µM, the TGI (BT-549 breast) was greater than 100 µM and the GI50 (SF-268 CNS) was 7.54 µM. It also gave a TGI (SF-268 CNS) greater than 100 µM, a GI50 (NCI-H23 lung) of 19.3 µM and a TGI (NCI-H23 lung) greater than 100 µM. It also gave a GI50 (SNB-75 CNS) of 7.76 µM, a TGI (SNB-75 CNS) of 74 µM and a GI50 (SK-MEL-28 melanoma) of 27 µM. It also gave a TGI (SK-MEL-28 melanoma) greater than 100 µM, a GI50 (LOX IMVI melanoma) of 8.6 µM and a TGI (LOX IMVI melanoma) greater than 100 µM. It also gave a GI50 (MALME-3M melanoma) of 22.1 µM and a TGI (MALME-3M melanoma) greater than 72.6 µM.

In the case of `COc1oc(C2C/C(=C/C(C)=C/C(C)=C/C(C)=C/c3ccc([N+](=O)[O-])cc3)CO2)c(C)c(=O)c1C` (stereo not given), the TGI (KM12 colon) is reported as greater than 48.2 µM, the TGI (DU-145 prostate) is reported as greater than 47.3 µM and the TGI (T-47D breast) is reported as 6.81 µM. For the same compound, the TGI (BT-549 breast) was 17.4 µM, the TGI (SF-268 CNS) was 42.6 µM and the TGI (NCI-H23 lung) was 31.4 µM. It also gave a TGI (SNB-75 CNS) greater than 57.5 µM, a TGI (SK-MEL-28 melanoma) greater than 60.5 µM and a TGI (LOX IMVI melanoma) of 23.4 µM. The TGI (MALME-3M melanoma) was 16.2 µM.

For `O=C(NOCCO)c1ccc2cncn2c1Nc1ccc(I)cc1F`, the GI50 (KM12 colon) was 0.0268 µM and 0.018 µM, the TGI (KM12 colon) was greater than 100 µM and the GI50 (DU-145 prostate) was > 10 µM and 19.9 µM. The TGI (DU-145 prostate) was greater than 100 µM, the GI50 (T-47D breast) was > 10 µM and 51.1 µM and the TGI (T-47D breast) was greater than 100 µM. For the same compound, the GI50 (BT-549 breast) was > 10 µM and 11.1 µM, the TGI (BT-549 breast) was greater than 91.7 µM and the GI50 (SF-268 CNS) was > 10 µM and 22 µM. The TGI (SF-268 CNS) was greater than 100 µM, the GI50 (NCI-H23 lung) was 0.0189 µM and 0.0195 µM and the TGI (NCI-H23 lung) was > 10 µM and 45.2 µM. For the same compound, the GI50 (SNB-75 CNS) was > 8.85 µM and 14.3 µM, the TGI (SNB-75 CNS) was greater than 100 µM and the GI50 (SK-MEL-28 melanoma) was 0.003 µM and < 0.01 µM. The TGI (SK-MEL-28 melanoma) was 0.0717 µM and 0.198 µM, the GI50 (LOX IMVI melanoma) was 0.0493 µM and 0.0635 µM and the TGI (LOX IMVI melanoma) was > 10 µM and 47.1 µM. The GI50 (MALME-3M melanoma) was 0.00203 µM and < 0.01 µM and the TGI (MALME-3M melanoma) was 0.0186 µM and < 0.01 µM.

`CC1=C(C(=S)Nc2ccc(Cl)c(C(=O)OC(C)C)c2)SCCO1` showed a TGI (KM12 colon) of 33.5 µM, a TGI (DU-145 prostate) of 57.1 µM and a TGI (T-47D breast) of 51.7 µM. It also gave a TGI (BT-549 breast) of 37.8 µM, a TGI (SF-268 CNS) of 60.8 µM and a TGI (NCI-H23 lung) of 62.2 µM. It also gave a TGI (SNB-75 CNS) of 43.7 µM, a TGI (SK-MEL-28 melanoma) of 35.4 µM and a TGI (LOX IMVI melanoma) of 28.8 µM. It also gave a TGI (MALME-3M melanoma) of 36.9 µM.

Compound `CNC(=O)c1sc(-n2cnc3cc(OC)c(OC)cc32)cc1OCc1ccccc1C(F)(F)F` has a GI50 (KM12 colon) greater than 25 µM, a TGI (KM12 colon) greater than 25 µM and a GI50 (DU-145 prostate) greater than 25 µM. It also gave a TGI (DU-145 prostate) greater than 25 µM, a GI50 (T-47D breast) of 19.9 µM and a TGI (T-47D breast) greater than 25 µM. It also gave a GI50 (BT-549 breast) greater than 25 µM, a TGI (BT-549 breast) greater than 25 µM and a GI50 (SF-268 CNS) greater than 25 µM. It also gave a TGI (SF-268 CNS) greater than 25 µM, a GI50 (NCI-H23 lung) greater than 25 µM and a TGI (NCI-H23 lung) greater than 25 µM. It also gave a GI50 (SNB-75 CNS) greater than 15.8 µM, a TGI (SNB-75 CNS) greater than 25 µM and a GI50 (SK-MEL-28 melanoma) greater than 25 µM. It also gave a TGI (SK-MEL-28 melanoma) greater than 25 µM, a GI50 (LOX IMVI melanoma) greater than 25 µM and a TGI (LOX IMVI melanoma) greater than 25 µM. The GI50 (MALME-3M melanoma) was greater than 25 µM and the TGI (MALME-3M melanoma) was greater than 25 µM.

`COc1cc(/C=N\Nc2ccccc2)ccc1OC(=O)c1ccccc1` was tested, and the GI50 (KM12 colon) was 0.778 µM, the TGI (KM12 colon) was greater than 68.8 µM and the GI50 (DU-145 prostate) was 39.4 µM. It also gave a TGI (DU-145 prostate) greater than 100 µM, a GI50 (T-47D breast) of 0.268 µM and a TGI (T-47D breast) greater than 85.9 µM. The GI50 (BT-549 breast) was 8.34 µM, the TGI (BT-549 breast) was 62.3 µM and the GI50 (SF-268 CNS) was 4.54 µM. The TGI (SF-268 CNS) was greater than 100 µM, the GI50 (NCI-H23 lung) was 15.8 µM and the TGI (NCI-H23 lung) was greater than 100 µM. The GI50 (SNB-75 CNS) was 12.8 µM, the TGI (SNB-75 CNS) was 61.9 µM and the GI50 (SK-MEL-28 melanoma) was 19.2 µM. For the same compound, the TGI (SK-MEL-28 melanoma) was greater than 93.1 µM, the GI50 (LOX IMVI melanoma) was 0.296 µM and the TGI (LOX IMVI melanoma) was 4.57 µM. The GI50 (MALME-3M melanoma) was 7.55 µM and the TGI (MALME-3M melanoma) was greater than 100 µM.

Compound `Cc1cnc(C(=O)Nc2nc3ccc(S(=O)(=O)Nc4ccc(C(C)(C)C)cc4)cc3[nH]2)cn1` has a GI50 (KM12 colon) of 0.349 µM, a TGI (KM12 colon) of 11 µM and a GI50 (DU-145 prostate) of 0.525 µM. It also gave a TGI (DU-145 prostate) of 4.51 µM, a GI50 (T-47D breast) of 0.592 µM and a TGI (T-47D breast) of 20.8 µM. It also gave a GI50 (BT-549 breast) of 1.12 µM, a TGI (BT-549 breast) of 13.6 µM and a GI50 (SF-268 CNS) of 0.759 µM. For the same compound, the TGI (SF-268 CNS) was 13.6 µM, the GI50 (NCI-H23 lung) was 0.606 µM and the TGI (NCI-H23 lung) was 12.7 µM. For the same compound, the GI50 (SNB-75 CNS) was 0.216 µM, the TGI (SNB-75 CNS) was 1.01 µM and the GI50 (SK-MEL-28 melanoma) was 1.17 µM. For the same compound, the TGI (SK-MEL-28 melanoma) was 14 µM, the GI50 (LOX IMVI melanoma) was 0.79 µM and the TGI (LOX IMVI melanoma) was 13.1 µM. It also gave a GI50 (MALME-3M melanoma) of 0.59 µM and a TGI (MALME-3M melanoma) of 14.5 µM.

`CN1CCN(Cc2ccc(NC(=O)c3cncc(C#Cc4c(N)ncc5ccccc45)c3)cc2C(F)(F)F)CC1` gave a GI50 (KM12 colon) of 0.005 µM, a TGI (KM12 colon) of 0.618 µM and a GI50 (DU-145 prostate) of 0.716 µM. For the same compound, the TGI (DU-145 prostate) was 1.39 µM, the GI50 (T-47D breast) was 0.831 µM and the TGI (T-47D breast) was 1.66 µM. For the same compound, the GI50 (BT-549 breast) was 1.62 µM, the TGI (BT-549 breast) was 4.7 µM and the GI50 (SF-268 CNS) was 0.723 µM. It also gave a TGI (SF-268 CNS) of 1.56 µM, a GI50 (NCI-H23 lung) of 0.656 µM and a TGI (NCI-H23 lung) of 1.46 µM. For the same compound, the GI50 (SNB-75 CNS) was 0.872 µM, the TGI (SNB-75 CNS) was 1.61 µM and the GI50 (SK-MEL-28 melanoma) was 0.767 µM. For the same compound, the TGI (SK-MEL-28 melanoma) was 1.48 µM, the GI50 (LOX IMVI melanoma) was 0.348 µM and the TGI (LOX IMVI melanoma) was 0.979 µM. For the same compound, the GI50 (MALME-3M melanoma) was 0.31 µM and the TGI (MALME-3M melanoma) was 0.979 µM.

`COC(=O)c1sc(-n2cnc3cc(OC)c(OC)cc32)cc1OCc1ccccc1C(F)(F)F` was tested, and the GI50 (KM12 colon) was greater than 25 µM, the TGI (KM12 colon) was greater than 25 µM and the GI50 (DU-145 prostate) was greater than 25 µM. The TGI (DU-145 prostate) was greater than 25 µM, the GI50 (T-47D breast) was greater than 25 µM and the TGI (T-47D breast) was greater than 25 µM. It also gave a GI50 (BT-549 breast) greater than 25 µM, a TGI (BT-549 breast) greater than 25 µM and a GI50 (SF-268 CNS) of 17.1 µM. The TGI (SF-268 CNS) was greater than 25 µM, the GI50 (NCI-H23 lung) was greater than 25 µM and the TGI (NCI-H23 lung) was greater than 25 µM. The GI50 (SNB-75 CNS) was 9.07 µM, the TGI (SNB-75 CNS) was greater than 19.6 µM and the GI50 (SK-MEL-28 melanoma) was greater than 25 µM. For the same compound, the TGI (SK-MEL-28 melanoma) was greater than 25 µM, the GI50 (LOX IMVI melanoma) was greater than 25 µM and the TGI (LOX IMVI melanoma) was greater than 25 µM. It also gave a GI50 (MALME-3M melanoma) greater than 25 µM and a TGI (MALME-3M melanoma) greater than 25 µM.

Compound `CC1CCc2c(C(=O)Nc3ncc(Cc4cccc([N+](=O)[O-])c4)s3)csc2C1` (stereo not given) has a GI50 (KM12 colon) of 0.442 µM, a TGI (KM12 colon) greater than 100 µM and a GI50 (DU-145 prostate) of 1.05 µM. It also gave a TGI (DU-145 prostate) greater than 100 µM, a GI50 (T-47D breast) of 0.653 µM and a TGI (T-47D breast) greater than 100 µM. It also gave a GI50 (BT-549 breast) of 1.25 µM, a TGI (BT-549 breast) greater than 100 µM and a GI50 (SF-268 CNS) of 1.53 µM. It also gave a TGI (SF-268 CNS) greater than 100 µM, a GI50 (NCI-H23 lung) of 1.83 µM and a TGI (NCI-H23 lung) greater than 100 µM. It also gave a GI50 (SNB-75 CNS) of 0.369 µM, a TGI (SNB-75 CNS) of 1.66 µM and a GI50 (SK-MEL-28 melanoma) of 3.66 µM. For the same compound, the TGI (SK-MEL-28 melanoma) was greater than 100 µM, the GI50 (LOX IMVI melanoma) was 0.48 µM and the TGI (LOX IMVI melanoma) was greater than 100 µM. For the same compound, the GI50 (MALME-3M melanoma) was 1 µM and the TGI (MALME-3M melanoma) was greater than 100 µM.
